Structures are written as SMILES. Values after ≈ are worked out from the molar mass of the structure shown.

Data set [1] deals with Mycobacterium tuberculosis H37 Rv. Put plainly: minimal inhibitory concentration (antimicrobial activity). The format is cell-based. Conditions: H37RV, read-out: minimal inhibitory concentration. An excerpt: (§1) The unexpected biological characteristics of the novel rifamycins have been evidenced by considering the survival time after a daily administration of rifampicin and a once-a-week administration of the same dose level per os of 3-[4-(2-propenyl)-1-piperazinyl]iminorifamycin SV (hereinafter referred to as "propenyl derivative") to mice infected with Mycobacterium tuberculosis H37 Rv. […] For instance, the value of the minimal inhibitory concentration of propenyl derivative against Mycobacterium tuberculosis H37 Rv is 0.02 μg/ml while that of rifampicin is 0.5 μg/ml.

For data set [2] the test system is unchanged. Put plainly: survival time of mice infected with Mycobacterium tuberculosis H37 Rv. In kind it is in vivo. Conditions: once-a-week per os vs daily rifampicin at same dose level; total amount about 1/6.
From the text: as §1

The nature of another data set: in vivo. Conditions: mouse.
For another data set, the system named is Staphylococcus aureus. Put plainly: experimental Staphylococcus aureus infection in mice. In kind it is in vivo. As to conditions: po. As to the method:
In fact, propynyl derivative (i.e. 3-[4-(2-propynyl)-1-piperazinyl]iminomethylrifamycin SV) in representative experiments has shown an ED50 value of 0.20 mg/kg p.o. The toxicity is very low, the LD 50 value in mice being higher than 2000 mg/kg p.o. The new compounds are suitably administered in usual pharmaceutical combinations with conventional carriers.

The next data set is described as follows: toxicity (LD50) in mice. As to conditions: in words.

As a reminder, the LD50 is the dose at which mortality reaches 50%. `C=CCN1CCN(N=Cc2c3c(O)c4c(O)c(C)c5c(c4c2O)C(=O)C(C)(OC=CC(OC)C(C)C(OC(C)=O)C(C)C(O)C(C)C(O)C(C)C=CC=C(C)C(=O)N3)O5)CC1` (stereo not shown) [propenyl derivative, 3-[4-(2-Propenyl)-1-piperazinyl]iminomethylrifamycin SV]: the MIC in data set [1] worked out at 0.02 µg/mL (≈ 0.0236 µM). For the same compound, the survival time result in data set [2] was “about the same survival time”. Also, the figures for the LD50 in the data set “in vivo” (ip) and in “in vivo” (po) were about 700 mg/kg and about 1500 mg/kg, respectively.

The term ED50 denotes the midpoint of the dose-response relation. `C#CCN1CCN(N=Cc2c3c(O)c4c(O)c(C)c5c(c4c2O)C(=O)C(C)(OC=CC(OC)C(C)C(OC(C)=O)C(C)C(O)C(C)C(O)C(C)C=CC=C(C)C(=O)N3)O5)CC1` (stereo not shown) [propynyl derivative, 3-[4-(2-Propynyl)-1-piperazinyl]iminomethylrifamycin SV]: the ED50 in the data set with Staphylococcus aureus is 0.2 mg/kg. Besides, the LD50 in “in vivo” (po) was over 2000 mg/kg. In “toxicity (LD50) in mice”, the toxicity entry was “very low”.

(Values after patent publication US4002754A, “Substituted piperazinyliminorifamycins” (Gruppo Lepetit S.p.A., priority 1975, dated 1977).)
